Bounds are passed on as bounds.

One experiment has as its system Lox-IMVI melanoma cell line. The experiment in a line: Lox-IMVI anti-proliferative assay (growth inhibition, Cell Titer-Glo). The format is cell-based, human. Conditions: Homo sapiens; IC50 activity level in the cell-based Lox-IMVI anti-proliferative assay; read-out: Activity. In outline: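 IC50 values reflect the concentration giving 50% of DMSO-control luminescence after 72 h of treatment, fitted with a four-parameter logistic model. Cells were cultured in RPMI + 10% FBS with compound from 0.5 nM to 10 μM.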
For `NC(=O)[C@H]1CC[C@@H](n2c(Nc3cccc(Cl)c3F)nc3cnc(N[C@@H]4CCC[C@H]4O)nc32)CC1` [Example 263, (1S,4s)-4-(8-(3-chloro-2-fluorophenylamino)-2-((1R,2R)-2-hydroxycyclopentylamino)-9H-purin-9-yl)cyclohexanecarboxamide], the IC50 was above 1000 nM.

Turning to `Cc1ccc(F)c(Nc2nc3cnc(NC4CCOCC4)nc3n2[C@H]2CC[C@@H](C(N)=O)CC2)c1Cl` [Example 91, (1s,4s)-4-(8-(2-chloro-6-fluoro-3-methylphenylamino)-2-(tetrahydro-2H-pyran-4-ylamino)-9H-purin-9-yl)cyclohexanecarboxamide], the IC50 was above 1000 nM.

On to `NC(=O)[C@H]1CC[C@@H](n2c(Nc3c(F)cc(Cl)cc3Cl)nc3cnc(NC4CCOCC4)nc32)CC1` [Example 40], for which the IC50 was below 250 nM.

As for `NC(=O)[C@H]1CC[C@@H](n2c(Nc3c(F)cccc3F)nc3cnc(NC4CCC(F)(F)CC4)nc32)CC1` [Example 289, (1s,4s)-4-(2-(4,4-difluorocyclohexylamino)-8-(2,6-difluorophenylamino)-9H-purin-9-yl)cyclohexanecarboxamide], the IC50 was above 1000 nM.

As for `C[C@H](CO)Nc1ncc2nc(Nc3c(F)cc(F)cc3Cl)n([C@H]3CC[C@@H](C(N)=O)CC3)c2n1` [Example 134, (1S,4s)-4-(8-(2-chloro-4,6-difluorophenylamino)-2-((R)-1-hydroxypropan-2-ylamino)-9H-purin-9-yl)cyclohexanecarboxamide], the IC50 is above 1000 nM.

For the compound `NC(=O)[C@H]1CC[C@@H](n2c(Nc3c(Cl)cccc3Cl)nc3cnc(NC4CCC4)nc32)CC1` [Example 51], the IC50 lay in the range of 500 to 1000 nM.

For `NC(=O)[C@H]1CC[C@@H](n2c(Nc3ccc(F)c(F)c3F)nc3cnc(N[C@@H]4CCC[C@H]4O)nc32)CC1` [Example 264, (1S,4s)-4-(2-((1R,2R)-2-hydroxycyclopentylamino)-8-(2,3,4-trifluorophenylamino)-9H-purin-9-yl)cyclohexanecarboxamide], the IC50 is above 1000 nM.

On to `CS(=O)(=O)N1CCC(Nc2ncc3nc(Nc4c(Cl)cc(Cl)cc4Cl)n([C@H]4CC[C@@H](C(N)=O)CC4)c3n2)CC1` [Example 292, (1s,4s)-4-(2-(1-(methylsulfonyl)piperidin-4-ylamino)-8-(2,4,6-trichlorophenylamino)-9H-purin-9-yl)cyclohexanecarboxamide], for which the IC50 is 500 to 1000 nM.

In the case of `C[C@@H]1CC[C@@H](Nc2ncc3nc(Nc4ccc(Cl)cc4Cl)n([C@H]4CC[C@@H](C(N)=O)CC4)c3n2)C[C@H]1O` [Example 391, (1S,4s)-4-(8-(2,4-dichlorophenylamino)-2-((1R,3R,4R)-3-hydroxy-4-methylcyclohexylamino)-9H-purin-9-yl)cyclohexanecarboxamide], the IC50 was above 1000 nM.

For the compound `NC(=O)[C@H]1CC[C@@H](n2c(Nc3c(F)cc(Cl)cc3F)nc3cnc(NC4CCC4)nc32)CC1` [Example 129, (1s,4s)-4-(8-(4-chloro-2,6-difluorophenylamino)-2-(cyclobutylamino)-9H-purin-9-yl)cyclohexanecarboxamide], the IC50 was above 1000 nM.

In the case of `NC(=O)[C@H]1CC[C@@H](n2c(Nc3c(F)cc(F)cc3Cl)nc3cnc(N[C@@H]4CC[C@@H](O)C4)nc32)CC1` [Example 210, (1S,4s)-4-(8-(2-chloro-4,6-difluorophenylamino)-2-((1R,3R)-3-hydroxycyclopentylamino)-9H-purin-9-yl)cyclohexanecarboxamide], the IC50 is above 1000 nM.

Turning to `NC(=O)[C@H]1CC[C@@H](n2c(Nc3c(Cl)cc(Cl)cc3Cl)nc3cnc(N[C@@H]4CC[C@@H](O)C4)nc32)CC1` [Example 212, (1S,4s)-4-(2-((1R,3R)-3-hydroxycyclopentylamino)-8-(2,4,6-trichlorophenylamino)-9H-purin-9-yl)cyclohexanecarboxamide], the IC50 is 250 to 500 nM.

Still in this experiment, the particulars now being: Homo sapiens; Lox-IMVI anti-proliferative assay, IC50 activity level; read-out: Activity.
In the case of `NC(=O)[C@H]1CC[C@@H](n2c(Nc3c(Cl)cc(F)cc3Cl)nc3cnc(N[C@@H]4CCCC[C@H]4O)nc32)CC1` [Example 469, (1S,4s)-4-(8-(2,6-dichloro-4-fluorophenylamino)-2-((1R,2R)-2-hydroxycyclohexylamino)-9H-purin-9-yl)cyclohexanecarboxamide], the IC50 is above 1000 nM.

Turning to `C[C@@H](CO)Nc1ncc2nc(Nc3c(Cl)cc(C(F)(F)F)cc3Cl)n([C@H]3CC[C@@](C)(C(N)=O)CC3)c2n1` [Example 554, (1R,4s)-4-(8-(2,6-dichloro-4-(trifluoromethyl)phenylamino)-2-((S)-1-hydroxypropan-2-ylamino)-9H-purin-9-yl)-1-methylcyclohexanecarboxamide], the IC50 is 500 to 1000 nM.

Turning to `NC(=O)[C@H]1CC[C@@H](n2c(Nc3c(F)cc(F)cc3F)nc3cnc(N[C@H]4CCC(F)(F)C4)nc32)CC1` [Example 593, (1R,4s)-4-(2-((S)-3,3-difluorocyclopentylamino)-8-(2,4,6-trifluorophenylamino)-9H-purin-9-yl)cyclohexanecarboxamide], the IC50 was in the range of 250 to 500 nM.

Take `NC(=O)[C@H]1CC[C@@H](n2c(Nc3c(Cl)cc(Cl)cc3Cl)nc3cnc(N[C@H]4CCC[C@H](O)C4)nc32)CC1` [Example 461, (1R,4s)-4-(2-((1S,3S)-3-hydroxycyclohexylamino)-8-(2,4,6-trichlorophenylamino)-9H-purin-9-yl)cyclohexanecarboxamide]: the IC50 was above 1000 nM.

Still in this experiment, the particulars now being: Homo sapiens; Lox-IMVI melanoma cell line, anti-proliferative assay; read-out: Activity (IC50 activity level).
With `Cc1ccc(S(=O)(=O)N2CCC[C@@H](Nc3ncc4nc(Nc5c(F)cc(Cl)cc5Cl)n([C@H]5CC[C@@H](C(N)=O)CC5)c4n3)C2)cc1` [Example 793, (1S,4s)-4-(8-(2,4-dichloro-6-fluorophenylamino)-2-((R)-1-tosylpiperidin-3-ylamino)-9H-purin-9-yl)cyclohexanecarboxamide], the IC50 was above 1000 nM.

Take `N#Cc1cc(Cl)c(Nc2nc3cnc(N[C@@H]4CCCN(c5ccccc5)C4)nc3n2[C@H]2CC[C@@H](C(N)=O)CC2)c(Cl)c1` [Example 744, (1S,4s)-4-(8-(2,6-dichloro-4-cyanophenylamino)-2-((R)-1-phenylpiperidin-3-ylamino)-9H-purin-9-yl)cyclohexanecarboxamide]: the IC50 is above 1000 nM.

Take `C[C@]1(C(N)=O)CC[C@@H](n2c(Nc3c(F)cc(F)cc3Cl)nc3cnc(N[C@H]4CCC[C@@H](O)C4)nc32)CC1` [Example 626, (1R,4s)-4-(8-(2-chloro-4,6-difluorophenylamino)-2-((1S,3R)-3-hydroxycyclohexylamino)-9H-purin-9-yl)-1-methylcyclohexanecarboxamide]: the IC50 lay in the range of 500 to 1000 nM.

In the case of `CS(=O)(=O)N1CCC[C@@H](Nc2ncc3nc(Nc4c(F)cc(Cl)cc4Cl)n([C@H]4CC[C@@H](C(N)=O)CC4)c3n2)C1` [Example 701, (1S,4s)-4-(8-(2,4-dichloro-6-fluorophenylamino)-2-((R)-1-(methylsulfonyl)piperidin-3-ylamino)-9H-purin-9-yl)cyclohexanecarboxamide], the IC50 fell in the range of 500 to 1000 nM.

The experiment is the same for the next values; noted with them: Lox-IMVI melanoma cell line, anti-proliferative assay; read-out: Activity (IC50 activity level).
In the case of `C[C@]1(C(N)=O)CC[C@@H](n2c(Nc3c(Cl)cc(F)cc3Cl)nc3cnc(NC4CCC4)nc32)CC1` [Example 606, (1s,4s)-4-(2-(cyclobutylamino)-8-(2,6-dichloro-4-fluorophenylamino)-9H-purin-9-yl)-1-methylcyclohexanecarboxamide], the IC50 is below 250 nM.

The record behind these values is patent US11590139B2, “Substituted aminopurine compounds, compositions thereof, and methods of treatment therewith” (Signal Pharmaceuticals, LLC, priority 2014, dated 2023).
